The values that follow come from article PMC4038613, “A New Class of Multimerization Selective Inhibitors of HIV-1 Integrase” (PLoS Pathogens, 2014).

Read-outs that look alike come from different tables or passages of the source.

One data set deals with virion-associated RT. As to the kind of experiment: Virion-associated Reverse Transcriptase (RT) assay. It is filed as biochemical, HIV-1. To be noted: virions produced with 1 µM KF116. The protocol:
Virions generated in the presence of inhibitor or diluent control (DMSO) was concentrated over 25% sucrose cushion. The virion-associated RT activity assay was performed as described previously, [81] with minor changes. Briefly, equivalent amounts of concentrated virions (based on HIV-1 p24 ELISA) were incubated with RT buffer, containing 50 mM Tris (pH 7.8), 75 mM KCL, 5 mM MgCl2, 2 mM DTT, 0.05% Nonidet P-40 (v/v), 5 µg/ml Poly r(A). Poly d(T)12–18, and 10 µCi of α-^32P dTTP, in 35 µl final volume. The reactions were incubated at room temperature for 3 h. Duplicate 10 µl of the final reactions were blotted onto a 96-well DEAE Filtermat paper (Wallac-Perkin Elmer), dried, washed and processed as described previously.
The initiation of reverse transcription from total viral RNA was measured using an in vitro HIV-1 reverse transcription reaction, which extends tRNA^Lys3 primer on viral RNA template by +6-nt. The final reaction products were resolved by PAGE and detected by phosphorimager analysis. (Upper panel) A representative image of the 6-nt extension products is shown. (Lower panel) The bar graph represents quantification of bands from the upper panel using ImageJ software. The signal intensity obtained for the non-treated (DMSO) sample was set to 100%. […] Equivalent amounts of concentrated virions, based on HIV-1 p24 ELISA, were analyzed for virion-associated RT activity. […]

The target of the next data set is HIV-1 IN (Human immunodeficiency virus type 1 group M subtype B, UniProt P12497). As to the kind of experiment: biochemical.
Data set [1] relates to initiation of reverse transcription. As to the kind of experiment: tRNALys3 primer extension assay. In kind it is biochemical, HIV-1. To be noted: virions produced with 1 µM KF116.
The next data set concerns HIV-1NL4-3. Nature of the data set: microbe, parasite or virus in culture. It is filed as cell-based.
The target of a further data set is T1, IN (Human immunodeficiency virus type 1 group M subtype B, UniProt P12497).
T1 construct: DLS analysis of KF116-induced multimerization of recombinant IN
As to the kind of experiment: DLS assay of recombinant IN multimerization. It is filed as biochemical, HIV-1. On the procedure:
(A) DLS analysis of KF116-induced multimerization of recombinant IN. […] The indicated volumes of cross-linked reaction products were resolved by SDS-PAGE and immunoblotted with HIV-1 IN antibody. The bands corresponding to IN “monomer”, “dimer”, and “higher order oligomers” are indicated.
DLS signals were recorded at room temperature using a Malvern Nano series zetasizer instrument.

For data set [2], the system named is HIV-1. Nature of the data set: Antiviral assay, early stage (inhibitor added to target cells). It is filed as cell-based. To be noted: called IC50.
For data set [3], the system named is VSV-G pseudotyped HIV-1-Luc. In kind it is cell-based.
In the next data set the test system is HIV-1 capsid (p24). Nature of the data set: Sucrose density gradient fractionation of detergent-lysed virions. It is filed as cell-based. To be noted: 1 µM KF116, fractions 18–20.
The test system of a further data set is HIV-1 expression. In kind it is cell-based. The note with it: for inhibition of HIV-1 expression: target cells.
For data set [4], the system named is HIV-1. Nature of the data set: Antiviral assay, late stage (inhibitor added to producer cells). In kind it is cell-based. To be noted: Human immunodeficiency virus 1, virions prepared in presence of inhibitor, untreated target cells; called IC50.
Experimental: Results represent mean ± SD from three independent experiments.
For late stage experiments, the progeny virions were prepared in the presence of the indicated concentrations of the test inhibitor or diluent control (DMSO) and were then used to infect untreated target cells.

Experimental for HIV-1 IN: HTRF-based IN multimerization and IN-LEDGF/p75 binding assays were carried out as described previously [33]. The HTRF signal was recorded using a Perkin Elmer Multimode EnSpire plate reader.
Experimental for HIV-1 capsid (p24): Cell-free virions were harvested, detergent-lysed, and separated on 30–70% linear sucrose density gradients. Twenty-one 0.5 ml fractions were collected from the top of the gradient and subjected to SDS-PAGE and immunoblotted with HIV-1 Gag antisera to monitor the distribution of HIV-1 capsid. […] (D) Quantitation of HIV-1 capsid (p24) signal intensity from (B) as measured by ImageJ software. Graph represents the relative distribution of HIV-1 capsid (p24) in each of the sucrose density gradient fractions.
Sucrose density gradient fractionation was carried out as described previously [74] with some modifications. Briefly, HIV-1 virions were produced in the presence of the inhibitor or diluent control (DMSO) and cell-free virions were concentrated over a 25% sucrose cushion by ultra-centrifugation at 28,000 rpm for 2 h at 4°C in SW41 rotor (Beckman). Pelleted virions were resuspended in 300 µl STE buffer (10 mM Tris pH 7.5, 100 mM NaCl, 1 mM EDTA), lysed with 0.5% Triton X100 for 2 minutes at room temperature. Lysed virions were loaded on 30–70% linear sucrose density gradients in STE buffer, and ultra-centrifuged at 28,500 rpm for 16 h at 4°C in SW41 rotor (Beckman). Twenty-one 0.5-ml fractions were collected from the top of the gradient and subjected to SDS-PAGE and immunoblotted with HIV-1 Gag antisera to monitor the distribution of HIV-1 capsid.

On to `Cc1nc(-c2nc3ccc(Cl)cc3[nH]2)c(C)c(-c2ccccc2)c1C(OC(C)(C)C)C(=O)O` (stereo not drawn) [KF116], for which, in the data set with virion-associated RT, the “effect on virion-associated RT activities” value was “no effects”. The EC50 at HIV-1 IN is 86 ± 6 nM; in the data set with HIV-1NL4-3 (Human immunodeficiency virus 1, read-out: EC50, Full Replication Cycle, KF116 added to both producer and target cells, mean ± SD, three experiments), 24 nM; in the data set with HIV-1 [2] (Human immunodeficiency virus 1, read-out: EC50, Early Stage, target cells, inhibitor added to target cells, untreated virions) it was 50900 ± 4300 nM; in the data set on HIV-1 [2] (read-out: EC50, Early Stage, target cells, inhibitor added to target cells, untreated virions) it was ~50000 nM; in the data set on HIV-1 [4] it was ~30 nM. In data set [1], the “effect on annealing of tRNALys3 primer to viral RNA template (primer extension)” value is recorded as “did not significantly affect”. Further, the IC50 with HIV-1NL4-3 (Human immunodeficiency virus 1, read-out: Antiviral activity (IC50), HIV-1NL4-3, full replication cycle) is ~24 nM. In addition, the “DLS particle size diameter, 30 min” value at IN (1 µM KF116, 200 nM IN) stood at 1106 nm. At IN (1 µM KF116, 200 nM IN), the “DLS particle size diameter, 120 min” value is listed as 1281 nm. The “DLS particle size diameter, immediately upon addition (2 minutes)” value on IN (1 µM KF116, 200 nM IN) is 142 nm. Besides, at IN (only KF116, no IN), the “DLS signal of inhibitor alone (self-aggregation in aqueous solution)” value is on record as “no signal was recorded”. In addition, the “effect on replication intermediates in target cells of virions produced in presence of inhibitor” value in data set [3] is “sharply reduced levels of early and late RT products”. In [3], the “effect on replication intermediates when inhibitor added to target cells” value is “had no effects on reverse transcription, integration, levels of 2-LTRs, or viral expression”. In the data set on HIV-1 capsid (p24), the “reduction of HIV-1 capsid (p24) in higher density fractions” value is listed as > 95%. Also, the “inhibition of HIV-1 expression” value with HIV-1 expression (5 µM) and in the data set with HIV-1 expression (10 µM) was “did not significantly inhibit HIV-1 expression” in each case. Moreover, the “reduction in target cell HIV-1 expression” value with HIV-1 expression (virus-producer cells treated with 0.1 µM) is on record as ~77%.
